Experimental data from US10869931B2, “Polyethylene glycol-modified angiogenesis inhibitor HM-1 and application thereof” (NANJING ANJI BIOLOGICAL TECHNOLOGY CO.,LTD, priority 2016, dated 2020).
Where “and” joins values, the source holds several entries; their conditions need not be identical. Equal values may be shown once. Marks after values point to notes of the source that are not given here. Values belong to the compound of their own block, whether it stands above or below them. Where no end group is shown, it is not given here.

What was measured:
[1] = test system: xylene-induced ear swelling in Kunming mice; assay: Xylene-induced ear swelling in mice; type: in vivo, mouse; conditions: 200 mg/kg (positive control) once daily for 5 days
Protocol: Kunming mice were used. The saline group was used as the blank control group, the aspirin group (200 mg/kg) as the positive control group, and the mPEG-HM-1 administration group as the experimental group. Mice were administered once daily for 5 consecutive days. The blank control group was given an equal volume of physiological saline. One hour after the last administration, 0.05 mL of xylene was applied to both sides of the right ear of the mice to cause inflammation, and the left ear was not coated as normal ears. After 2 h, the mice were sacrificed by dislocation, and the ears were cut along the auricle. Ear pieces were taken with a puncher, weighed, and the swelling degree and swelling rate were calculated. Swelling degree=right ear piece weight-left ear piece weight, swelling rate=(swelling degree/left ear piece weight)×100%. Statistical t-test was performed on the test results, *P<0.05 was a significant difference, and **P<0.01 was a very significant difference. See Table 31 to Table 34 for the results.

[2] = test system: Human Umbilical Vein Endothelial Cells (HUVEC); assay: Transwell migration of HUVEC; type: cell-based; conditions: 10 μg/mL, 24 h
Protocol: 10 mg/mL Matrigel was diluted 1:2 with HUVEC-specific medium, spread on a transwell chamber membrane, and air-dried at room temperature. HUVEC cells cultured in logarithmic growth phase were digested with trypsin digest, collected, washed twice with PBS, and resuspended in blank HUVECs-specific medium. The cells were counted under a microscope, and the cell concentration was adjusted to 1×10^5/mL. The test solutions of each group were prepared and diluted to 100 μL with a blank HUVECs-specific medium. The cells were seeded into a transwell chamber at 100 μL per well, and each set of test solution was added to the chamber. The cell culture was stimulated by adding 0.6 mL of endothelial cell culture medium containing 5% fetal bovine serum and 1% ECGS into a 24-well plate, and cultured at 5% CO2 for 24 hour at 37° c. Discard the culture medium in the well, fix it with 90% alcohol at room temperature for 30 minutes, 0.1% crystal violet for 10 min at room temperature, rinse with water, gently wipe off the unsprayed cells in the upper layer with a cotton swab, observe under microscope and select four fields to take pictures. Calculate migration inhibition (MI) according to the formula: […]
Ntest was the number of cell migration in the test group, and Ncontrol was the number of cell migration in the blank control group.
The test was repeated 3 times independently. The results obtained from the test were calculated as mean±SD, and a statistical T test was performed. *P<0.05 was a significant difference, and **P<0.01 was a very significant difference.

[3] = test system: human retinal vascular endothelial cells (HRCEC); assay: MTT proliferation of human retinal vascular endothelial cells; type: cell-based; conditions: 10 μg/mL (positive control), 48 h
Protocol: The activity of the angiogenesis inhibitor polypeptide to inhibit proliferation of human retinal vascular endothelial cells was examined by MTT assay. HRCEC cells were cultured in a 37° C., 5% CO2 incubator to a density of 90% or more, and collected by trypsinization. The cells were resuspended in the culture medium and counted under a microscope to adjust the cell concentration to 3.0×10^4 cells/mL. The cell suspension was inoculated into a 96-well plate at 100 μL per well and cultured overnight at 37° C. in a 5% CO2 incubator. After the cells were completely adhered, the angiogenesis inhibitor polypeptide was added as the administration group, and Avastin was used as the positive control group, and the culture media without any drug was used as a blank control group, and the culture media were diluted to each predetermined concentration. Each dilution was separately added to a 96-well plate at 100 μL per well and incubated for 48 h at 37° C. in a 5% CO2 incubator. 20 μL of 5 mg/mL MTT was added to each well of a 96-well plate and incubation was continued for 4 h. The medium was aspirated and dissolved in 100 μL of DMSO per well. […] The formula is as follows: PI (%)=1−administration group/negative group
The test was repeated 3 times independently. The results obtained by the test were expressed as mean±SD, and a statistical T test was performed. *P<0.05 was a significant difference, and **P<0.01 was a very significant difference.

[4] = Half-life / pharmacokinetics of mPEG-HM-1 and HM-1; conditions: in vivo

Compound: CC(=O)Oc1ccccc1C(=O)O [aspirin, reference compound]
Swelling ([1]; 2 h after xylene): 3.07 ± 0.31** mg and 3.02 ± 0.41** mg and 3.01 ± 0.53** mg and 2.98 ± 0.53** mg
Inhibition rate ([1]; ear swelling vs control): 50.02% and 51.11% and 50.87% and 50.93%

Compound: Avastin: positive control in HUVEC migration and HRCEC proliferation tests [reference compound]
cell migration number (Mean ± SD) [2]: 564.53 ± 60.36 and 560.64 ± 62.06 and 532.80 ± 60.06 and 572.06 ± 48.92
inhibition rate of HUVEC migration [2]: 46.78%* and 45.92%* and 48.22%* and 47.62%*
Inhibition rate ([3]; HRCEC proliferation): 65.83%** and 64.93%** and 65.71%** and 66.07%**
A570 nm-A630 nm ([3]; HRCEC, MTT): 0.4479 ± 0.08104 and 0.4636 ± 0.08322 and 0.4494 ± 0.08132 and 0.4518 ± 0.08013

AUC(0-inf) [4]: 32800 ± 8230 ng·h/mL
MRT inf [4]: 4.02 ± 0.78 min
Compound: RGADRAGGGGRGD [HM-1, Arg-Gly-Ala-Asp-Arg-Ala-Gly-Gly-Gly-Gly-Arg-Gly-Asp]
